These results are taken from ChEMBL document CHEMBL3872210, “Synthesis and antiproliferative mechanism of action of pyrrolo[3',2':6,7] cyclohepta[1,2-d]pyrimidin-2-amines as singlet oxygen photosensitizers” (Eur J Med Chem, 2016).

Data set [1] is described as follows: Dark toxicity against human HT-29 cells assessed as reduction in cell survival measured after 30 mins by MTT assay. Type of data set: cell-based. A general note: Tetrazolium assays rely on reduction of a dye to a coloured formazan, in cell work by metabolically active cells.
Data set [2] can be described thus: Photocytotoxicity against human HeLa cells assessed as reduction in cell survival irradiated with 1.5 J/cm2 UV-light for 5 mins measured after 48 hrs by MTT assay. Type of data set: functional, cell-based. The following applies: light or radiation study.
Data set [3] in a line: Selectivity index, ratio of CC50 for cytotoxicity against human HeLa cells to EC50 for photocytotoxicity against human HeLa cells. Type of data set: toxicity, cell-based. The following applies: read-out: Ratio CC50/EC50.
Data set [4] is described as follows: Photocytotoxicity against human HT-29 cells assessed as reduction in cell survival irradiated with 1.5 J/cm2 UV-light for 5 mins measured after 48 hrs by MTT assay. The settings on record: HT-29, light or radiation study. Type of data set: functional, cell-based.
Data set [5] can be described thus: Dark toxicity against human HeLa cells assessed as reduction in cell survival measured after 30 mins by MTT assay. It counts as cell-based.
Data set [6] in a line: Dark toxicity against human MCF7 cells assessed as reduction in cell survival measured after 30 mins by MTT assay. It counts as cell-based.
Data set [7] in a line: Photocytotoxicity against human MCF7 cells assessed as reduction in cell survival irradiated with 1.5 J/cm2 UV-light for 5 mins measured after 48 hrs by MTT assay. Type of data set: functional, cell-based. The settings on record: MCF7, light or radiation study.
A short description of data set [8]: Selectivity index, ratio CC50 for cytotoxicity against human HT-29 cells to EC50 for photocytotoxicity against human HT-29 cells. Type of data set: toxicity, cell-based. The following applies: read-out: Ratio CC50/EC50.
A short description of data set [9]: Selectivity index, ratio CC50 for cytotoxicity against human MCF7 cells to EC50 for photocytotoxicity against human MCF7 cells. Type of data set: toxicity, cell-based. The following applies: read-out: Ratio CC50/EC50.
Data set [10] deals with MCF7. The data set is described as follows: Dark toxicity against human MCF7 cells assessed as increase in production of radical oxygen species at 1 to 4 uM after 2 hrs by H2DCFDA dye based fluorescence assay. The settings on record: mcf7, 2 h. Type of data set: cell-based.
A short description of data set [11]: Photocytotoxicity against human MCF7 cells assessed as increase in production of radical oxygen species at 4 uM pretreated for 30 mins followed by 1.5 J/cm2 UV-light irradiation for 5 mins measured after 2 hrs by H2DCFDA dye based fluorescence assay relative to control. Type of data set: functional.

A value given as a limit tells only on which side of the number the result lay.

A word on the CC50: it is the concentration that lowers cell viability or growth by half. The term EC50 denotes the concentration needed to bring the measured effect to its halfway point.

For `COc1ccc(Cn2c(C(N)=O)cc3c2-c2nc(N)ncc2CCC3)cc1`, the CC50 at 0.5 h in [1], in data set [5] and in data set [6] was greater than 100000 nM each time. In addition, the half-maximal effective concentration (EC50) was 1140 nM in data set [2], 2000 nM in [4] and 3260 nM in data set [7]. In addition, the figures for the selectivity ratio in data set [3], in [8] and in data set [9] were greater than 88, greater than 50 and greater than 31, respectively.
With `CCOC(=O)c1cc2c(n1Cc1ccc(OC)cc1)-c1nc(NC3CCCCC3)ncc1CCC2`, the CC50 at 0.5 h in data set [1], in data set [5] and in data set [6] was greater than 100000 nM throughout. The concentration giving a half-maximal response (EC50) in data set [2] was found to be 70 nM; in data set [4], 140 nM; in data set [7] it was 110 nM. Further, the selectivity ratio in data set [3] is greater than 1360; in data set [8], greater than 735; in data set [9], greater than 952.
As to `CCOC(=O)c1cc2c(n1Cc1ccccc1)-c1nc(Nc3ccccc3)ncc1CCC2`, the cytotoxic concentration (CC50) at 0.5 h in [1], in [5] and in [6] was greater than 100000 nM throughout. For the same molecule, the half-maximal effective concentration (EC50) amounted to 280 nM in data set [2], 700 nM in data set [4] and 240 nM in data set [7]. The selectivity ratio was greater than 355 in [3], greater than 143 in data set [8] and greater than 412 in data set [9].
With `NC(=O)c1cc2c(n1Cc1ccccc1)-c1nc(N)ncc1CCC2`, the 50% cytotoxic concentration (CC50) at 0.5 h in data set [1], in [5] and in [6] was greater than 100000 nM throughout. The EC50 in data set [2] amounted to 2090 nM; in data set [4] it was 2170 nM; in [7] it was 3690 nM. The figures for the selectivity ratio in data set [3], in data set [8] and in data set [9] were greater than 48, greater than 46 and greater than 27, respectively.
As for `CCOC(=O)c1cc2c(n1Cc1ccc(OC)cc1)-c1nc(N)ncc1CCC2`, the half-maximal cytotoxic concentration (CC50) at 0.5 h in data set [1], in data set [5] and in data set [6] was greater than 100000 nM each time. The EC50 in [2] stood at 320 nM; in [4] it was 290 nM; in [7], 670 nM. The values for the selectivity ratio in data set [3], in data set [8] and in [9] were greater than 312, greater than 348 and greater than 150, respectively.
Turning to `CCOC(=O)c1cc2c(n1C)-c1nc(Nc3ccccc3)ncc1CCC2`, the CC50 at 0.5 h in data set [1], in data set [5] and in data set [6] was greater than 100000 nM throughout. The half-maximal effective concentration (EC50) came out at 100 nM in [2], 290 nM in data set [4] and 140 nM in data set [7]. Besides, the selectivity ratio is greater than 1040 in data set [3], greater than 348 in [8] and greater than 709 in data set [9].
As for `CCOC(=O)c1cc2c(n1C)-c1nc(N)ncc1CCC2`, the half-maximal cytotoxic concentration (CC50) at 0.5 h in [1], in data set [5] and in data set [6] was greater than 100000 nM throughout. In addition, the values for the concentration for a half-maximal effect (EC50) in data set [2], in data set [4] and in data set [7] were 720 nM, 1720 nM and 1540 nM, respectively. Besides, the values for the selectivity ratio in [3], in [8] and in data set [9] were greater than 139, greater than 58 and greater than 65, respectively.
On to `CCOC(=O)c1cc2c(n1Cc1ccccc1)-c1nc(N)ncc1CCC2`, for which the CC50 at 0.5 h in [1] was 79200 nM; in [5], greater than 100000 nM; in data set [6] it was 73600 nM. Also, the figures for the EC50 in data set [2], in data set [4] and in data set [7] were 220 nM, 280 nM and 790 nM, respectively. The selectivity ratio in data set [3] is greater than 455; in data set [8], 284; in data set [9], 93.
For the molecule `CCOC(=O)c1cc2c(n1Cc1ccccc1)-c1nc(NC3CCCCC3)ncc1CCC2`, the 50% cytotoxic concentration (CC50) at 0.5 h in data set [1], in data set [5] and in data set [6] was greater than 100000 nM in each case. Further, the Activity entry in [10] was “Non-Toxic”; in data set [11], 198%. For the same molecule, the values for the EC50 in [2], in data set [4] and in data set [7] were 60 nM, 80 nM and 100 nM, respectively. The selectivity ratio in [3] was greater than 1670; in data set [8], greater than 1240; in [9], greater than 1050.
With `CCOC(=O)c1cc2c(n1Cc1ccc(OC)cc1)-c1nc(Nc3ccccc3)ncc1CCC2`, the CC50 at 0.5 h in data set [1], in data set [5] and in [6] was greater than 100000 nM in each case. For the same molecule, the EC50 in data set [2] came to 180 nM; in data set [4], 70 nM; in [7], 860 nM. The selectivity ratio in data set [3] is greater than 559; in data set [8], greater than 1470; in data set [9], greater than 117.
Consider `COc1ccc(Cn2c(C(N)=O)cc3c2-c2nc(NC4CCCCC4)ncc2CCC3)cc1`, for which the CC50 at 0.5 h in data set [1], in data set [5] and in data set [6] was greater than 100000 nM throughout. Besides, the concentration giving a half-maximal response (EC50) worked out at 120 nM in data set [2], 410 nM in data set [4] and 180 nM in data set [7]. The selectivity ratio was greater than 813 in [3], greater than 243 in data set [8] and greater than 549 in data set [9].
In the case of `COc1ccc(Cn2c(C(N)=O)cc3c2-c2nc(Nc4ccccc4)ncc2CCC3)cc1`, the 50% cytotoxic concentration (CC50) at 0.5 h in data set [1], in data set [5] and in [6] was greater than 100000 nM throughout. The EC50 in data set [2] is 160 nM; in [4], 280 nM; in data set [7], 280 nM. Further, the selectivity ratio is greater than 610 in data set [3], greater than 360 in data set [8] and greater than 358 in data set [9].
Turning to `Cn1c(C(N)=O)cc2c1-c1nc(NC3CCCCC3)ncc1CCC2`, the CC50 at 0.5 h in data set [1] was greater than 100000 nM; in data set [5], greater than 100000 nM; in data set [6] it was 75200 nM. In addition, the EC50 worked out at 820 nM in data set [2], 1500 nM in [4] and 1850 nM in data set [7]. Moreover, the selectivity ratio in data set [3] is greater than 121; in data set [8], greater than 67; in data set [9] it was 41.
For `Cn1c(C(N)=O)cc2c1-c1nc(Nc3ccccc3)ncc1CCC2`, the CC50 at 0.5 h in data set [1], in [5] and in data set [6] was greater than 100000 nM each time. Further, the EC50 was found to be 1120 nM in [2], 1850 nM in data set [4] and 4960 nM in data set [7]. For the same molecule, the values for the selectivity ratio in data set [3], in [8] and in data set [9] were greater than 90, greater than 54 and greater than 20, respectively.
Turning to `NC(=O)c1cc2c(n1Cc1ccccc1)-c1nc(Nc3ccccc3)ncc1CCC2`, the cytotoxic concentration (CC50) at 0.5 h in data set [1] was greater than 100000 nM; in [5] it was greater than 100000 nM; in data set [6] it was 66500 nM. Moreover, the EC50 in data set [2] is 250 nM; in [4], 360 nM; in data set [7] it was 1040 nM. Moreover, the selectivity ratio in [3] was greater than 397; in [8], greater than 281; in [9] it was 64.
With `NC(=O)c1cc2c(n1Cc1ccccc1)-c1nc(NC3CCCCC3)ncc1CCC2`, the 50% cytotoxic concentration (CC50) at 0.5 h in data set [1], in data set [5] and in data set [6] was greater than 100000 nM each time. Also, the EC50 in [2] worked out at 220 nM; in data set [4], 370 nM; in [7], 180 nM. The results for the selectivity ratio in data set [3], in data set [8] and in data set [9] were greater than 463, greater than 270 and greater than 569, respectively.
